Earlier results on two compounds are cited in patent US8912356B2, “DCC mediated coupling for halofenate manufacture” (Metabolex, Inc., priority 2013, dated 2014).

For data set [1] the following is noted: administration of racemic mixture.
Data set [2] addresses cytochrome P450 2C9 (Homo sapiens, UniProt P11712). To be noted: relative to (+)-enantiomer of halofenic acid.

cytochrome P450 2C9, sequence (P11712 whole entry): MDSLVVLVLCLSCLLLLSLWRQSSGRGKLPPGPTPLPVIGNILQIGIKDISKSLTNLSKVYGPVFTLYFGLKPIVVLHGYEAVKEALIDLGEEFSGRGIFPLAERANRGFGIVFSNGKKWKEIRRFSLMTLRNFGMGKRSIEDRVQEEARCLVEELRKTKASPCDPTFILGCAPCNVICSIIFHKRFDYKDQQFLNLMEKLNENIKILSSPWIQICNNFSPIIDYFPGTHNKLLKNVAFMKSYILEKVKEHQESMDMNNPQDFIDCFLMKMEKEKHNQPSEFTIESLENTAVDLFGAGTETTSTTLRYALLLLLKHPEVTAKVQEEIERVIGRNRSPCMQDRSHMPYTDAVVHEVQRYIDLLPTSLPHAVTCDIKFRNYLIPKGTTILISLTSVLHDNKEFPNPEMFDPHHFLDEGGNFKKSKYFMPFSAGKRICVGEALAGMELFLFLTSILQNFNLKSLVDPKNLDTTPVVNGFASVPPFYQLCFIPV

With `CC(=O)NCCOC(=O)C(Oc1cccc(C(F)(F)F)c1)c1ccc(Cl)cc1` (racemic) [halofenate, 2-acetamidoethyl (4-chlorophenyl) (3-trifluoromethylphenoxy)acetate], the “potential adverse drug-drug interactions” value (racemic halofenate, with Coumadin) is listed as “difficulties controlling anticoagulation with Coumadin™”. Besides, for the setting “racemic mixture”, the adverse effects entry was “nausea, gastrointestinal ulcers, and gastrointestinal bleeding”. In data set [1], the plasma glucose result is reported as “lowering”, the serum uric acid entry is recorded as “lowering” and the triglycerides result is recorded as “lowering”.

Take `O=C(O)[C@H](Oc1cccc(C(F)(F)F)c1)c1ccc(Cl)cc1` [(−)-enantiomer of halofenic acid, (−)-4-chloro-α-(3-trifluoromethylphenoxy)phenylacetic acid]: the “ability to inhibit cytochrome P450 2C9 compared to the (+)-enantiomer” value in data set [2] is reported as “about twenty-fold less active”.
